Results from US6022901A, “Administration of resveratrol to prevent or treat restenosis following coronary intervention” (priority 1998, dated 2000).
Several values for one entry are separate records, joined by “and”; a condition that tells them apart may be missing. Equal entries are not always repeated.

How the values were obtained:
[1] = anti-initiation activity; cited from earlier work
[2] = system: cyclooxygenase; conditions: antipromotion activity; cited from earlier work
[3] = Resveratrol concentration in mouse plasma after oral administration in diet (HPLC); type: in vivo, mouse (Female Mice Strain A); conditions: for concentration at 1008 h: plasma, po, 6 weeks
Text: (§1) This experimental work assesses the bioavailability of resveratrol when administered orally to Female Mice Strain A, establishes the relationship betveen oral administration of resveratrol and the plasma concentration of the female mice, assesses the method of analysis for mouse plasma and establishes the detection limit of resveratrol in animal plasma. The mice were received from the Biological Testing Branch, National Cancer Institute, at 4-6 weeks of age, each having a body weight of approximately 16 g.
After a quarantine period of one week, seven (7) groups each consisting of 10 mice were given resveratrol mixed with Teklad 4% Mouse/Rat chow ad libitum for a 6-week treatment period.
(§2) Parameters monitored during the course of the study included sided-cage observations twice daily and body weight. Blood samples were taken at the end of the treatment period of 6 weeks and kept frozen at -20° C.±5 until the time of analysis. All animals were sacrificed by asphyxiation.
Plasma resveratrol concentration was determined by a liquid-liquid extraction method and reverse phase HPLC at Pharmascience Inc., Bio-analytical Division, Quebec, Canada, as follows. After addition of internal standard and buffer to plasma samples, ethyl acetate was then added. The extracted organic phase was transferred to a clean tube and dried with a nitrogen evaporator. The residue was reconstituted with the mobile phase and then injected to HPLC with UV at 310 nm.

[4] = anti-initiation activity; cited from earlier work; remark: listed apart in the source
[5] = system: hydroperoxidase; conditions: antipromotion activity; cited from earlier work
[6] = Clinical signs, cage observations twice daily in mice fed resveratrol; type: in vivo, mouse (Female Mice Strain A); conditions: any dose groups tested, 125-3000 mg/kg diet, 6 weeks
Text: as §1
(§3) After a quarantine period of one week, seven (7) groups each consisting of 10 mice were given resveratrol mixed with Teklad 4% Mouse/Rat chow ad libitum for a 6-week treatment period. As indicated in the table which follows, the concentration of resveratrol ranged from 125 mg/kg of diet to 3000 mg/kg of diet, with one group, as the control group, receiving only the mouse chow.
as §2

[7] = antipromotion activity; cited from earlier work
[8] = Effect of Resveratrol on Body Weight of Female A/J Mice (diet, 6-week treatment); type: in vivo
Text: as §1, §3, §2

[9] = system: human promyelocytic leukemia cell; conditions: cited from earlier work
[10] = system: phase II drug-metabolizing enzymes; conditions: anti-initiation activity; cited from earlier work

In the case of Oc1ccc(C=Cc2cc(O)cc(O)c2)cc1 [resveratrol, 3,5,4'-trihydroxy stilbene], the antimutagen activity [1] is given as “antimutagen”, the inhibition of cyclooxygenase [2] is given as “inhibited cyclooxygenase” and the oral absorption ([3]; mixed with chow) is given as “easily absorbed by the oral route”. For the same compound, the “relationship between plasma resveratrol levels and amount administered” value ([3]; oral in diet, FIG. 1) was “linear relationship”, the concentration at 1008 h ([3]; 125 mg/kg diet, n=5) was 10.8 ng/mL and the concentration at 1008 h ([3]; 250 mg/kg diet, n=4) was 87.9 ng/mL. The concentration at 1008 h ([3]; 500 mg/kg diet, n=5) was 56.8 ng/mL, the concentration at 1008 h ([3]; 1000 mg/kg diet, n=5) was 99 ng/mL and the concentration at 1008 h ([3]; 2000 mg/kg diet, n=5) was 178 ng/mL. For the same compound, the concentration at 1008 h ([3]; 3000 mg/kg diet, n=5) was 447 ng/mL, the antioxidant activity [4] was “acted as an antioxidant” and the inhibition of hydroperoxidase [5] was “inhibited cyclooxygenase and hydroperoxidase”. The compound-related clinical signs [6] was “no compound-related clinical signs”, the anti-inflammatory effects [7] was “mediated anti-inflammatory effects” and the mean body weight ([8]; 125 ppm, day 5, N=10) was 16.4 Grams. It also gave a mean body weight ([8]; 125 ppm, day 8, N=10) of 16.6 Grams, a mean body weight ([8]; 125 ppm, day 12, N=10) of 17.3 Grams and a mean body weight ([8]; 125 ppm, day 15, N=10) of 18.0 Grams. The mean body weight ([8]; 125 ppm, day 19, N=10) was 18.4 Grams, the mean body weight ([8]; 125 ppm, day 22, N=10) was 18.7 Grams and the mean body weight ([8]; 125 ppm, day 26, N=10) was 19.0 Grams. The mean body weight ([8]; 125 ppm, day 29, N=10) was 19.0 Grams, the mean body weight ([8]; 125 ppm, day 33, N=10) was 19.4 Grams and the mean body weight ([8]; 125 ppm, day 36, N=10) was 19.3 Grams. It also gave a mean body weight ([8]; 125 ppm, day 40, N=10) of 19.2 Grams, a mean body weight ([8]; 125 ppm, day 42, N=10) of 19.7 Grams and a mean body weight ([8]; 250 ppm, day 5, N=10) of 16.2 Grams. The mean body weight ([8]; 250 ppm, day 8, N=10) was 16.8 Grams, the mean body weight ([8]; 250 ppm, day 12, N=10) was 17.7 Grams and the mean body weight ([8]; 250 ppm, day 15, N=10) was 18.4 Grams. It also gave a mean body weight ([8]; 250 ppm, day 19, N=10) of 18.9 Grams, a mean body weight ([8]; 250 ppm, day 22, N=10) of 19.0 Grams and a mean body weight ([8]; 250 ppm, day 26, N=10) of 19.3 Grams. For the same compound, the mean body weight ([8]; 250 ppm, day 29, N=10) was 19.4 Grams, the mean body weight ([8]; 250 ppm, day 33, N=10) was 19.7 Grams and the mean body weight ([8]; 250 ppm, day 36, N=10) was 19.6 Grams. For the same compound, the mean body weight ([8]; 250 ppm, day 40, N=10) was 19.9 Grams, the mean body weight ([8]; 250 ppm, day 42, N=10) was 19.9 Grams and the mean body weight ([8]; 500 ppm, day 5, N=10) was 16.6 Grams. For the same compound, the mean body weight ([8]; 500 ppm, day 8, N=10) was 17.5 Grams, the mean body weight ([8]; 500 ppm, day 12, N=10) was 17.8 Grams and the mean body weight ([8]; 500 ppm, day 15, N=10) was 18.3 Grams. It also gave a mean body weight ([8]; 500 ppm, day 19, N=10) of 18.7 Grams, a mean body weight ([8]; 500 ppm, day 22, N=10) of 19.2 Grams and a mean body weight ([8]; 500 ppm, day 26, N=10) of 19.4 Grams. It also gave a mean body weight ([8]; 500 ppm, day 29, N=10) of 19.8 Grams, a mean body weight ([8]; 500 ppm, day 33, N=10) of 19.8 Grams and a mean body weight ([8]; 500 ppm, day 36, N=10) of 20.1 Grams. For the same compound, the mean body weight ([8]; 500 ppm, day 40, N=10) was 20.0 Grams, the mean body weight ([8]; 500 ppm, day 42, N=10) was 20.2 Grams and the mean body weight ([8]; 1000 ppm, day 5, N=10) was 16.1 Grams. For the same compound, the mean body weight ([8]; 1000 ppm, day 8, N=10) was 16.9 Grams, the mean body weight ([8]; 1000 ppm, day 12, N=10) was 17.4 Grams and the mean body weight ([8]; 1000 ppm, day 15, N=10) was 18.2 Grams. For the same compound, the mean body weight ([8]; 1000 ppm, day 19, N=10) was 18.1 Grams, the mean body weight ([8]; 1000 ppm, day 22, N=10) was 18.8 Grams and the mean body weight ([8]; 1000 ppm, day 26, N=10) was 19.0 Grams. It also gave a mean body weight ([8]; 1000 ppm, day 29, N=10) of 19.3 Grams, a mean body weight ([8]; 1000 ppm, day 33, N=10) of 19.5 Grams and a mean body weight ([8]; 1000 ppm, day 36, N=10) of 19.8 Grams. It also gave a mean body weight ([8]; 1000 ppm, day 40, N=10) of 19.5 Grams, a mean body weight ([8]; 1000 ppm, day 42, N=10) of 19.6 Grams and a mean body weight ([8]; 2000 ppm, day 5, N=10) of 16.3 Grams. The individual body weight ([8]; 2000 ppm, day 5, animals 51-60) was 17.8 Grams and 15.7 Grams and 16.1 Grams and 17.0 Grams and 13.7 Grams, the mean body weight ([8]; 2000 ppm, day 8, N=10) was 16.6 Grams and the individual body weight ([8]; 2000 ppm, day 8, animals 51-60) was 19.1 Grams and 15.8 Grams and 14.8 Grams and 16.5 Grams and 13.6 Grams. The mean body weight ([8]; 2000 ppm, day 12, N=10) was 17.7 Grams, the individual body weight ([8]; 2000 ppm, day 12, animals 51-60) was 19.5 Grams and 16.9 Grams and 17.0 Grams and 19.2 Grams and 18.1 Grams and 15.3 Grams and the mean body weight ([8]; 2000 ppm, day 15, N=10) was 17.7 Grams. For the same compound, the individual body weight ([8]; 2000 ppm, day 15, animals 51-60) was 19.6 Grams and 16.9 Grams and 16.7 Grams and 19.0 Grams and 17.7 Grams and 14.5 Grams, the mean body weight ([8]; 2000 ppm, day 19, N=10) was 18.8 Grams and the individual body weight ([8]; 2000 ppm, day 19, animals 51-60) was 20.1 Grams and 18.4 Grams and 19.5 Grams and 15.7 Grams. For the same compound, the mean body weight ([8]; 2000 ppm, day 22, N=10) was 19.1 Grams, the individual body weight ([8]; 2000 ppm, day 22, animals 51-60) was 20.3 Grams and 18.8 Grams and 18.4 Grams and 20.9 Grams and 20.0 Grams and 16.3 Grams and the mean body weight ([8]; 2000 ppm, day 26, N=10) was 19.2 Grams. For the same compound, the individual body weight ([8]; 2000 ppm, day 26, animals 51-60) was 20.2 Grams and 19.0 Grams and 18.7 Grams and 20.7 Grams and 19.9 Grams and 16.0 Grams, the mean body weight ([8]; 2000 ppm, day 29, N=10) was 19.5 Grams and the individual body weight ([8]; 2000 ppm, day 29, animals 51-60) was 20.7 Grams and 19.5 Grams and 18.8 Grams and 21.4 Grams and 20.0 Grams and 16.1 Grams. For the same compound, the mean body weight ([8]; 2000 ppm, day 33, N=10) was 19.8 Grams, the individual body weight ([8]; 2000 ppm, day 33, animals 51-60) was 21.0 Grams and 19.8 Grams and 19.5 Grams and 21.2 Grams and 20.7 Grams and 16.6 Grams and the mean body weight ([8]; 2000 ppm, day 36, N=10) was 19.6 Grams. For the same compound, the individual body weight ([8]; 2000 ppm, day 36, animals 51-60) was 21.3 Grams and 18.4 Grams and 18.5 Grams and 20.4 Grams and 20.0 Grams and 16.7 Grams, the mean body weight ([8]; 2000 ppm, day 40, N=10) was 19.7 Grams and the individual body weight ([8]; 2000 ppm, day 40, animals 51-60) was 20.3 Grams and 19.9 Grams and 18.9 Grams and 21.0 Grams and 20.9 Grams and 17.2 Grams. The mean body weight ([8]; 2000 ppm, day 42, N=10) was 20.3 Grams, the individual body weight ([8]; 2000 ppm, day 42, animals 51-60) was 19.5 Grams and 21.7 Grams and 19.2 Grams and 21.9 Grams and 21.3 Grams and 18.0 Grams and the mean body weight ([8]; group 7, 300 (ppm), day 5, N=10) was 16.3 Grams. For the same compound, the individual body weight ([8]; group 7, 300 (ppm), day 5, animals 61-70) was 16.0 Grams and 14.9 Grams and 15.2 Grams, the mean body weight ([8]; group 7, 300 (ppm), day 8, N=10) was 17.1 Grams and the individual body weight ([8]; group 7, 300 (ppm), day 8, animals 61-70) was 16.8 Grams and 16.4 Grams and 16.1 Grams. The mean body weight ([8]; group 7, 300 (ppm), day 12, N=10) was 17.6 Grams, the individual body weight ([8]; group 7, 300 (ppm), day 12, animals 61-70) was 17.6 Grams and 17.5 Grams and 17.4 Grams and the mean body weight ([8]; group 7, 300 (ppm), day 15, N=10) was 17.1 Grams. For the same compound, the individual body weight ([8]; group 7, 300 (ppm), day 15, animals 61-70) was 16.9 Grams and 17.2 Grams, the mean body weight ([8]; group 7, 300 (ppm), day 19, N=10) was 18.7 Grams and the individual body weight ([8]; group 7, 300 (ppm), day 19, animals 61-70) was 18.8 Grams and 18.2 Grams. For the same compound, the mean body weight ([8]; group 7, 300 (ppm), day 22, N=10) was 19.1 Grams, the individual body weight ([8]; group 7, 300 (ppm), day 22, animals 61-70) was 18.5 Grams and 18.6 Grams and the mean body weight ([8]; group 7, 300 (ppm), day 26, N=10) was 19.1 Grams. For the same compound, the individual body weight ([8]; group 7, 300 (ppm), day 26, animals 61-70) was 18.6 Grams and 18.5 Grams, the mean body weight ([8]; group 7, 300 (ppm), day 29, N=10) was 18.9 Grams and the individual body weight ([8]; group 7, 300 (ppm), day 29, animals 61-70) was 18.8 Grams and 18.3 Grams. The mean body weight ([8]; group 7, 300 (ppm), day 33, N=10) was 19.5 Grams, the individual body weight ([8]; group 7, 300 (ppm), day 33, animals 61-70) was 18.7 Grams and 18.8 Grams and the mean body weight ([8]; group 7, 300 (ppm), day 36, N=10) was 19.9 Grams. The individual body weight ([8]; group 7, 300 (ppm), day 36, animals 61-70) was 19.4 Grams and 18.6 Grams, the mean body weight ([8]; group 7, 300 (ppm), day 40, N=10) was 19.6 Grams and the individual body weight ([8]; group 7, 300 (ppm), day 40, animals 61-70) was 19.3 Grams and 19.1 Grams. The mean body weight ([8]; group 7, 300 (ppm), day 42, N=10) was 20.1 Grams, the individual body weight ([8]; group 7, 300 (ppm), day 42, animals 61-70) was 19.1 Grams and 19.5 Grams and the “human promyelocytic leukemia cell differentiation” value [9] was “induced human promyelocytic leukemia cell differentiation”. The “induction of phase II drug-metabolizing enzymes” value [10] was “induced phase II drug-metabolizing enzymes”.
